# Results reported in publication PMC7180728, “Novel Anthraquinone Compounds Inhibit Colon Cancer Cell Proliferation via the Reactive Oxygen Species/JNK Pathway” (Molecules, 2020).
# Assays:
# EC9708 = test: MTT cell proliferation assay, EC9706 (Table 1: EC9708); format: cell-based; settings: Homo sapiens, EC9708 esophageal cancer, 48 h
# Procedure: (§1) The effects of the synthesized amide anthraquinone derivatives on the proliferative activity of eight human cancerous cell lines (EC9706, MCF-7, SGC-7901, HepG2, QBC939, HeLa, HCT116 and SW480) in addition to two normal human cell lines (colorectal FHC and liver HL7702) were evaluated using the standard MTT assay.
# (§2) The human esophageal cancer cell line EC9706 was obtained from Cancer Hospital and Institute by Prof. Ming Rong Wang, Chinese Academy Medical of Sciences. The human colorectal carcinoma cell lines HCT116 and SW480, hepatoma cell line HepG2, cervical carcinoma cell line HeLa, breast cancer cell line MCF-7, gastric cancer cell line SGC-7901, cholangiocarcinoma cell line QBC939, normal fetal colon cell line FHC and liver cell line HL-7702 were obtained from the Cell Bank of the Shanghai Chinese Academy of Sciences. All cells were cultured in RPMI 1640 medium containing 100 U/mL penicillin and streptomycin and 10% fetal bovine serum and maintained at 37°C under a 5% CO2 atmosphere.
# (§3) We analyzed the inhibitory effects of eight anthraquinone-amino acid derivatives on the proliferation of eight tumor cell lines and two normal cell lines in vitro using MTT assays. Cells were added to a 96-well plate with (5,000 cells per well in 100 µL RPMI-1640 medium). Cells were treated with different concentrations (10–100 μg/mL) of 8a–8h for 48 h and then incubated with 20 μL MTT (5 mg/mL) for another 4 h at 37°C. DMSO (150 μL) was then added to each well to dissolve the formazan crystals. The absorbance of each well was read at 490 nm on a microtiter plate ELISA reader. The mean values were obtained from a minimum of three parallel experiments. IC50 values were calculated.
# HepG2 = test: MTT cell proliferation assay, HepG2; format: cell-based; settings: Homo sapiens, HepG2 liver cancer, 48 h
# Procedure: as §1, §2, §3
# Bcl-2, Bcl-xL and Bax = test: Western blot, Bcl-2 family proteins; format: cell-based, human; settings: HCT116, western blot
# Procedure: In addition, the expression of apoptosis-related proteins after 8a treatment was detected by western blot. Previous studies have shown that the Bcl-2 protein family is one of the most interesting oncogene-related proteins in programmed cell death. Therefore, we analyzed the levels of Bcl-2, Bcl-xL and Bax after 24 h of treatment with different concentrations (0, 10, 20, and 40 μg/mL) 8a. […] Moreover, the phosphorylation levels of Bcl-2 and Bcl-xL increased with increasing 8a concentration.
# The expression of signaling pathway-related proteins was detected by western blot analysis. Cell (1 × 10^6) were plated in 90-mm dishes and treated with 8a for 24 h. The cells were treated with NAC in the same way as in step 4.7. Resuspend the cells in Buffer A (1 mM EDTA, 1 mM PMSF, 0.28 μg/mL apotinin, 50 μg/mL leupeptin, 7 μg/mL pepstain A) and transferred to a 1 mL glass homogenizer and pull up and down 30 times in an ice bath. Cells were collected and centrifuged (1000 g × 10 min, 4 °C). The obtained supernatant and precipitate were the crude cytoplasm and mitochondria, respectively. The cytosolic fraction was transferred to an ultra-ion tube and centrifuged (100,000g × 1 hr, 4 °C), and the resulting supernatant was the purified cytosolic fraction. The mitochondrial pellet was resuspended in Buffer B (1mM EGTA, 1mM PMSF, 0.28 μg/mL apotinin, 50 μg/mL leupeptin, 7 μg/mL pepstain A), centrifuged (10,000g × 10 min, 4 °C), and repeated 3 times. The mitochondria pellet was lysed in cell lysate buffer (1% NP-40, 2 μg/mL aprotinin, 2 μg/mL leupeptin, 1mM EDTA, 1mM Na vanadate). Protein concentrations in the supernatant were determined by using a Minbio BCA protein assay kit. Protein were separated by SDS-PAGE and transferred to a PVDF membrane. The membrane was blocked, and incubated with primary detection antibodies overnight at 4 °C. After washing three times with TBS-T, the membranes were incubated with the secondary detection antibody. […]
# cytochrome c = test: Western blot, cytochrome c in cytoplasm and mitochondria; format: cell-based, human; settings: 10 or 20 μg/mL, 24 h, HCT116, western blot
# Procedure: Decreased mitochondrial membrane potential is a hallmark of early cell apoptosis, and a decrease in mitochondrial membrane potential leads to the release of certain mitochondrial proteins, such as cytochrome c, which mediate apoptosis. Therefore, we examined changes in mitochondrial membrane potential by flow cytometry. HCT116 cells were treated with 8a (10 or 20 μg/mL) for 24 h and then stained with 2 μg/mL JC-1 for 30 min prior to flow cytometric analysis. Green /orange fluorescence ratio of JC-1, compare with control, is 200% and 494.4%, respectively (Figure 8E,F). […] During apoptosis, mitochondrial cytochrome C is released into the cytoplasm and triggers the activation cascade of caspase. HCT116 cells were collected after 8a treatment, cytoplasmic protein and mitochondrial protein were extracted. The levels of cytochrome c in the cytoplasm and mitochondria were detected by Western blotting. After treatment of HCT116 cells with 8a (10 or 20 μg/mL) for 24 h, cytoplasmic levels of cytochrome c increased, while the levels in the mitochondria decreased.
# The expression of signaling pathway-related proteins was detected by western blot analysis. Cell (1 × 10^6) were plated in 90-mm dishes and treated with 8a for 24 h. The cells were treated with NAC in the same way as in step 4.7. […] Protein concentrations in the supernatant were determined by using a Minbio BCA protein assay kit. […]
# HeLa = test: MTT cell proliferation assay, HeLa; format: cell-based; settings: Homo sapiens, HeLa cervical cancer, 48 h
# Procedure: as §1, §2, §3
# HL-7702 = test: MTT cell proliferation assay, normal liver cells HL-7702; format: cell-based; settings: L02, HL-7702 normal human hepatocyte, 48 h
# Procedure: as §1, §2, §3
smiles,measurement,setting,value
"CC(C)CC(NC(=O)c1ccc2c(c1[N+](=O)[O-])C(=O)c1ccccc1C2=O)C(=O)O (stereo not drawn) [Compound 8a, N-[(9,10-dihydro-1-nitro-9,10-dioxo-2-anthracenyl)carbonyl-leucine]]",IC50,EC9708,44 ± 0.61 µg/mL
same,IC50,HepG2,44.65 ± 0.03 µg/mL
same,Bax expression,"Bcl-2, Bcl-xL and Bax; 0, 10, 20, 40 μg/mL, 24 h",increased
same,levels of Bcl-2 and Bcl-xL,"Bcl-2, Bcl-xL and Bax; 0, 10, 20, 40 μg/mL, 24 h",gradually decreased
same,phosphorylation levels of Bcl-2 and Bcl-xL,"Bcl-2, Bcl-xL and Bax; with increasing 8a concentration",increased
same,cytochrome c levels in the mitochondria,cytochrome c,decreased
same,cytoplasmic levels of cytochrome c,cytochrome c,increased
same,IC50,HeLa,29.75 ± 0.15 µg/mL
same,IC50,HL-7702,> 1000 µg/mL
